Laboratory results: the supplement of paper PMC10307832

Tests used:
Assay in all cases: relative viability (nuclei count vs DMSO), 5 days (fraction); higher = more cells survive
Tozasertib + Trametinib = compound: Cc1cc(Nc2cc(N3CCN(C)CC3)nc(Sc3ccc(NC(=O)C4CC4)cc3)n2)n[nH]1 [Tozasertib] + CC(=O)Nc1cccc(-n2c(=O)n(C3CC3)c(=O)c3c(Nc4ccc(I)cc4F)n(C)c(=O)c(C)c32)c1 [Trametinib] (partner 0.02 µM)
Outline: (§1)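 Relative viability is defined as nuclei in treated wells over nuclei in vehicle wells. Duplicate plates were run and medians reported. Lung cancer cell lines in 1536-well plates were dosed by pin tool one day after seeding, with one drug or with a fixed anchor-drug dose plus five library-drug doses (not always all listed) in √10 steps, and nuclei were counted after 5 days.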

Tozasertib + Navitoclax = compound: Cc1cc(Nc2cc(N3CCN(C)CC3)nc(Sc3ccc(NC(=O)C4CC4)cc3)n2)n[nH]1 [Tozasertib] + CC1(C)CCC(c2ccc(Cl)cc2)=C(CN2CCN(c3ccc(C(=O)NS(=O)(=O)c4ccc(N[C@H](CCN5CCOCC5)CSc5ccccc5)c(S(=O)(=O)C(F)(F)F)c4)cc3)CC2)C1 [Navitoclax] (partner 0.5 µM)
Outline: as §1

Tozasertib + Luminespib = compound: Cc1cc(Nc2cc(N3CCN(C)CC3)nc(Sc3ccc(NC(=O)C4CC4)cc3)n2)n[nH]1 [Tozasertib] + CCNC(=O)c1noc(-c2cc(C(C)C)c(O)cc2O)c1-c1ccc(CN2CCOCC2)cc1 [Luminespib] (partner 0.01 µM)
Outline: as §1

Tozasertib + Lapatinib = compound: Cc1cc(Nc2cc(N3CCN(C)CC3)nc(Sc3ccc(NC(=O)C4CC4)cc3)n2)n[nH]1 [Tozasertib] + CS(=O)(=O)CCNCc1ccc(-c2ccc3ncnc(Nc4ccc(OCc5cccc(F)c5)c(Cl)c4)c3c2)o1 [Lapatinib] (partner 2 µM)
Outline: as §1

Tozasertib + Olaparib = compound: Cc1cc(Nc2cc(N3CCN(C)CC3)nc(Sc3ccc(NC(=O)C4CC4)cc3)n2)n[nH]1 [Tozasertib] + O=C(c1cc(Cc2n[nH]c(=O)c3ccccc23)ccc1F)N1CCN(C(=O)C2CC2)CC1 [Olaparib] (partner 8 µM)
Outline: as §1

Cell Line	relative viability (Tozasertib + Trametinib; first compound 0.004 µM)	relative viability (Tozasertib + Trametinib; first compound 0.01265 µM)	relative viability (Tozasertib + Trametinib; first compound 0.04 µM)	relative viability (Tozasertib + Trametinib; first compound 0.1265 µM)	relative viability (Tozasertib + Navitoclax; first compound 0.004 µM)	relative viability (Tozasertib + Navitoclax; first compound 0.01265 µM)	relative viability (Tozasertib + Navitoclax; first compound 0.04 µM)	relative viability (Tozasertib + Navitoclax; first compound 0.1265 µM)	relative viability (Tozasertib + Luminespib; first compound 0.004 µM)	relative viability (Tozasertib + Luminespib; first compound 0.01265 µM)	relative viability (Tozasertib + Luminespib; first compound 0.04 µM)	relative viability (Tozasertib + Luminespib; first compound 0.1265 µM)	relative viability (Tozasertib + Lapatinib; first compound 0.004 µM)	relative viability (Tozasertib + Lapatinib; first compound 0.01265 µM)	relative viability (Tozasertib + Lapatinib; first compound 0.04 µM)	relative viability (Tozasertib + Lapatinib; first compound 0.1265 µM)	relative viability (Tozasertib + Olaparib; first compound 0.004 µM)	relative viability (Tozasertib + Olaparib; first compound 0.01265 µM)	relative viability (Tozasertib + Olaparib; first compound 0.04 µM)	relative viability (Tozasertib + Olaparib; first compound 0.1265 µM)
SK-MES-1	0.589	0.557	0.713	0.616	1.17	1.23	1.4	1.02	0.921	0.731	0.82	0.82	0.477	0.468	0.514	0.438	0.791	0.666	0.71	0.657
LU99A	0.545	0.504	0.494	0.373	0.739	0.636	0.715	0.414	0.225	0.249	0.27	0.218	1.07	0.749	0.742	0.467	0.251	0.212	0.26	0.251
EMC-BAC-2	0.873	0.826	0.928	–	1.18	1.14	1.25	0.812	1.15	1.11	1.3	0.827	0.851	–	0.908	0.567	0.511	0.437	0.414	0.366
NCI-H3122	0.198	0.244	0.239	0.23	0.996	1	1.04	1.05	0.0858	0.0879	0.1	0.101	0.974	0.992	1.02	1.04	0.646	0.67	0.62	0.641
NCI-H1792	0.481	0.412	0.754	0.35	0.681	0.481	–	0.418	0.394	–	0.456	0.325	0.913	0.742	0.943	0.737	0.456	0.435	0.707	0.314
RERF-LC-KJ	0.807	0.841	0.862	–	0.994	0.93	0.804	0.997	1.3	1.21	1.2	0.983	0.86	0.838	0.925	0.804	0.945	0.871	0.865	0.668
NCI-H596	0.992	0.877	0.826	0.622	1.05	0.815	1.07	0.827	0.957	0.96	1.09	0.901	1.17	1.07	1.11	0.49	0.605	0.769	0.732	0.525
COR-L23	0.613	0.599	0.609	0.332	1	0.897	0.954	0.757	0.836	0.619	0.618	0.637	1.02	0.863	0.721	0.247	0.375	0.378	0.3	0.299
NCI-H1437	0.562	0.422	0.54	0.294	1.05	0.974	1.09	0.87	1.19	1.1	1.09	1.03	0.782	0.74	0.759	0.329	0.66	0.58	0.595	0.541
NCI-H23	0.356	0.435	0.426	0.223	0.842	0.867	0.805	0.472	0.198	0.221	0.183	0.198	1.1	0.96	0.989	0.269	0.34	0.29	0.269	0.182
